Results from patent US7378397B2 (The Provost, Fellows and Scholars of the College of the …, priority 2000, dated 2008).
“Also recorded” adds a separate entry of the source. Where a SMILES comes first, the peptide text is derived from it. [ ]: non-standard residue; d: D form. The star is where a group is joined. AMC = Cc1cc(=O)oc2cc(N*)ccc12; pGlu = O=C1CC[C@@H](C(=O)O)N1; NHBn = c1ccc(CN*)cc1

Tests used:
TRH-DE [1] = target: T1, TRH-DE (Sus scrofa, UniProt A0A287AP33); experiment: continuous coupled fluorometric TRH-DE assay (TRHAMC substrate, DPP-IV coupling enzyme); assay type: biochemical, porcine; settings: for inhibition at 1000 µM: peptide 1 mM, 5 μM TRHAMC substrate
T1 construct: The inventor purified TRH-DE from porcine brain according to purification procedures previously published by Dr. K. Bauer; from tissue; host or cells: porcine brain (TRH-DE); bovine kidney (DPP-IV, gift from Dr. C. H. Williams)
Experimental: (§1) The inventor purified TRH-DE from porcine brain according to purification procedures previously published by Dr. K. Bauer, (Max-Planck-Institut, Hannover, Germany) (1). TRH-DE was purified almost 20,000 fold. […] Dipeptidyl peptidase IV (DPP-IV) (EC 3.4.14.5), purified from bovine kidney (7.7 mg ml^−1, specific activity of 17.5 U mg^−1 with Gly-ProAMC as substrate), was obtained as a gilt from Dr. C. H. Williams (Queen's University Belfast, U.K). (DPP-IV was used as the coupling enzyme used in the fluorometric assays).
(§2) One unit (U) of enzyme activity was defined as that amount catalysing the formation of one μmol of product in one minute under the standard conditions employed. All incubations in the assays described below were carried out in 20 mM potassium phosphate buffer, pH 7.5, at 37° C.
Kinetic analysis of peptides that are not hydrolysed by TRH-DE. A recently-developed continuous coupled fluorometric assay (23) was used to investigate the ability of those library peptides that were not hydrolysed by TRH-DE to inhibit TRHAMC degradation by TRH-DE. In this assay, TRHAMC is the substrate and dipeptidyl peptidase IV (DPP-IV) (EC 3.4.14.5) is the coupling enzyme. The reaction sequence is:
The reaction was monitored continuously by measuring the increase in AMC fluorescence. A linear progress curve with no discernible lag period was observed when the reaction was monitored over a period of 10 minutes. Nevertheless, data sampling was not commenced until 100 s from the start of the reaction to ensure measurements were taken after a steady state had been reached (see Ref. 23).
In a preliminary experiment, the peptides were screened for their ability to inhibit TRH-DE activity. The initial rate of TRHAMC hydrolysis by TRH-DE was measured by incubating 5 μM TRHAMC with 1.23 μg DPP-IV and 0.32 μg TRH-DE, both in the absence and presence of each library peptide (1 mM final concentration) under standard assay conditions (23). In each case the percentage inhibition (i%) was calculated using the equation i%=100(1-vi/vo), where vi and vo are the initial velocities in the presence and absence of peptide, respectively.
Since these peptides were poor inhibitors they were not examined further. The Ki values for the remainder of the peptides were determined by measuring their effects on TRHAMC degradation by TRH-DE using the continuous assay. Data were collected in duplicate at five different substrate concentrations and at least three different concentrations of each peptide.
Reversibility and time dependence of the inhibition produced by Glp-Gln-ProNH2, Glp-Asn-ProNH2 and Glp-Asn-ProAMC were examined by initially preincubating TRH-DE with each peptide at 37° C. for various periods up to 75 min. To investigate time dependence, the enzyme-peptide solution was subsequently added to the reaction mixture containing TRHAMC, DPP-IV, buffer and peptide, and TRH-DE activity was measured using the continuous assay. The final concentration of Glp-Gln-ProNH2, Glp-Asn-ProNH2 and Glp-Asn-ProAMC used was 400, 160 and 1 μM, respectively. […] TRH-DE activity was not affected by pre-incubation at 37° C.
Fluorescence measurements were made using a Perkin Elmer LS 50B Luminescence Spectrometer fitted with a thernostated cell holder. Wavelengths for excitation and emission were set at 370 nm and 440 nm, respectively, with slit widths of 10 nm and 5 nm, respectively.

TRH-DE [2] = target: T1, TRH-DE; experiment: HPLC assay of peptide hydrolysis by TRH-DE (Glp production); assay type: biochemical, porcine; settings: 1 mM peptide incubated with TRH-DE 18 h at 37° C., HPLC
Experimental: as §1, §2
Kinetic analysis of the peptide library using HPLC—The ability of each peptide in the library to act as a TRH-DE substrate was assessed using HPLC. As an initial screen, 1 mM peptide was incubated with 0.8 μg TRH-DE in a total volume of 1 ml for 18 h at 37° C. Control samples were included in which peptide (1 mM) or Glp (0.2 mM-0.8 mM) were incubated under identical conditions in the absence of TRH-DE. TRH-DE activity was terminated by the addition of TFA (0.15% v/v) and samples were then analysed using HPLC as described previously (24). Products resulting from TRH-DE hydrolysis could be separated on a C-18 reverse-phase column (Hypersil, UK) using a linear gradient of 0-70% acetonitrile in 0.08% (v/v) TFA. The concentration of Glp formed by the action of TRH-DE on the peptide library was measured by UV absorbance at 206 nm with a quantitative detection limit of 0.1 mM for a 40 μl injection volume, employing a signal to noise ratio of 10. Following the incubation of each peptide with TRH-DE, evidence of Glp in the sample was taken to indicate that the peptide was a TRH-DE substrate.
The rates of hydrolysis for each of those peptides identified as substrates were then compared by measuring Gip production using microassays with shorter incubation times. In these assays peptide (1 mM) was incubated at 37° C. in a total volume of 100 μl. 0.8-3.2 μg TRH-DE and incubations times of 5 min to 18 h were used routinely. Measurements were made in triplicate. The rate of TRH-OH hydrolysis was also measured by this method.

[3] = calculated from percent inhibition measured in duplicate at 5 μM substrate
[4] = from the percent inhibition (n = 3) in the presence of 5 μM substrate
[5] = non-linear regression, five TRHAMC concentrations and at least three peptide concentrations, mean±S.D. (n=3)
[6] = estimated from <20% inhibition at 1 mM peptide with the competitive inhibition relationship

T1 sequence (A0A287AP33 1-1066): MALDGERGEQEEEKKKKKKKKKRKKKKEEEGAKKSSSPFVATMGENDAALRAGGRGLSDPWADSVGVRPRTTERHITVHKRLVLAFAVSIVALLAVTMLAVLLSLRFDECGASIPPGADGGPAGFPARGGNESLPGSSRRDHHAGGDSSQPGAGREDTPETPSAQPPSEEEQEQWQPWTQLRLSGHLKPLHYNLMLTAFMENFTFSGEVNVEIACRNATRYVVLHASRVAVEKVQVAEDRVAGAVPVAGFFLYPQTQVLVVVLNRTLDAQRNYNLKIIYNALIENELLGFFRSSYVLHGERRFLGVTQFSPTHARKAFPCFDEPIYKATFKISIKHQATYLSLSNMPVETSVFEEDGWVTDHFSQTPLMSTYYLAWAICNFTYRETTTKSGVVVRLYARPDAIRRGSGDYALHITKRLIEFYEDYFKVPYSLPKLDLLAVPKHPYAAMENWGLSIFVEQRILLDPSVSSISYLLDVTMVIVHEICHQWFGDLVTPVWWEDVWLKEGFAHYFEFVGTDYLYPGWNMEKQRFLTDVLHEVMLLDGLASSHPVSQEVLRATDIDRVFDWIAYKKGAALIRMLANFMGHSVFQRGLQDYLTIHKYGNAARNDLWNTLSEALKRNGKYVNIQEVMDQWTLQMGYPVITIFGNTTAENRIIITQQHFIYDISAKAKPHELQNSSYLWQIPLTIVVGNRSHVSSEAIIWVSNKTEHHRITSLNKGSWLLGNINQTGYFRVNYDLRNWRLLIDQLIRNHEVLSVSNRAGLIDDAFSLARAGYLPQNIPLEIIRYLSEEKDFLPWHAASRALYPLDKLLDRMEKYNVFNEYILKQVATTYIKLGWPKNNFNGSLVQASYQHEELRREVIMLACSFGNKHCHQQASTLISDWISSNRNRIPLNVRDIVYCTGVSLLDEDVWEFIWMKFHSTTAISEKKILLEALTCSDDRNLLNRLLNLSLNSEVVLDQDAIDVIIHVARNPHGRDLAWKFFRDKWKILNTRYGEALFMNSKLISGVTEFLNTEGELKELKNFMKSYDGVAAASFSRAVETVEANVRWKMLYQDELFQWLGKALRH

NC(=O)C[C@H](NC(=O)[C@@H]1CCC(=O)N1)C(=O)N1CCC[C@H]1C(=O)Nc1ccccc1O
Ki (TRH-DE [1]; [3]): 6.62 µM

NC(=O)C[C@H](NC(=O)[C@@H]1CCC(=O)N1)C(=O)N1CCC[C@H]1C(=O)Nc1cccc2c1CCCC2
Ki (TRH-DE [1]; [3]): 9.31 µM

NC(=O)C[C@H](NC(=O)[C@@H]1CCC(=O)N1)C(=O)N1CCC[C@H]1C(=O)NC1CCCc2ccccc21 (single isomer, unassigned)
Ki (TRH-DE [1]; [3]): 63.2 µM

NC(=O)C[C@H](NC(=O)[C@@H]1CCC(=O)N1)C(=O)N1CCC[C@H]1C(=O)NC1CCCc2ccccc21 (single isomer, unassigned) [1,2,3,4-tetrahydro-1-naphthylamide isomer 2]
Ki (TRH-DE [1]; [3]): 22.4 µM

COc1ccc(Cl)cc1NC(=O)[C@@H]1CCCN1C(=O)[C@H](CC(N)=O)NC(=O)[C@@H]1CCC(=O)N1 [5-chloro-2-methoxy anilide]
Ki (TRH-DE [1]; [3]): 9.95 µM

NC(=O)C[C@H](NC(=O)[C@@H]1CCC(=O)N1)C(=O)N1CCC[C@H]1C(=O)NCc1ccccc1 [Benzylamide] ([pGlu]-Asn-Pro-NHBn)
Ki (TRH-DE [1]; [3]): 11.9 µM

Cc1cc(=O)oc2cc(NC(=O)[C@H](Cc3c[nH]c4ccccc34)NC(=O)[C@@H]3CCCN3C(=O)[C@H](CC(N)=O)NC(=O)[C@@H]3CCC(=O)N3)ccc12 [Glp-Asn-Pro-Trp-AMC] ([pGlu]NPW-{AMC})
Ki (TRH-DE [1]; [4]): 0.08 µM

NC(=O)C[C@H](NC(=O)[C@@H]1CCC(=O)N1)C(=O)N1CCC[C@H]1C(=O)N[C@@H](Cc1c[nH]c2ccccc12)C(N)=O [Glp-Asn-Pro-Trp-NH2] ([pGlu]NPW-NH2)
Ki (TRH-DE [1]; [4]): 5.17 µM

NC(=O)C[C@H](NC(=O)[C@@H]1CCC(=O)N1)C(=O)N1CCC[C@H]1C(=O)N[C@@H](Cc1c[nH]c2ccccc12)C(=O)N[C@@H](CO)C(=O)N[C@@H](Cc1ccc(O)cc1)C(N)=O [Glp-Asn-Pro-Trp-Ser-Tyr-NH2] ([pGlu]NPWSY-NH2)
Ki (TRH-DE [1]; [4]): 8.11 µM

NC(=O)C[C@H](NC(=O)[C@@H]1CCC(=O)N1)C(=O)N1CCC[C@H]1C(=O)N[C@@H](Cc1c[nH]c2ccccc12)C(=O)N[C@@H](Cc1ccc(O)cc1)C(N)=O [Glp-Asn-Pro-Trp-Tyr-NH2] ([pGlu]NPWY-NH2)
Ki (TRH-DE [1]; [4]): 5.91 µM

NC(=O)C[C@H](NC(=O)[C@@H]1CCC(=O)N1)C(=O)N1CCC[C@H]1C(=O)N[C@@H](Cc1ccc(O)cc1)C(N)=O [Glp-Asn-Pro-Tyr-NH2] ([pGlu]NPY-NH2)
Ki (TRH-DE [1]; [4]): 10.3 µM

Cc1cc(=O)oc2cc(NC(=O)[C@H](Cc3c[nH]c4ccccc34)NC(=O)[C@H](Cc3ccc(O)cc3)NC(=O)[C@@H]3CCCN3C(=O)[C@H](CC(N)=O)NC(=O)[C@@H]3CCC(=O)N3)ccc12 [Glp-Asn-Pro-Tyr-Trp-AMC] ([pGlu]NPYW-{AMC})
Ki (TRH-DE [1]; [5]): 0.04 µM

NC(=O)C[C@H](NC(=O)[C@@H]1CCC(=O)N1)C(=O)N1CCC[C@H]1C(=O)N[C@@H](Cc1ccc(O)cc1)C(=O)N[C@@H](Cc1c[nH]c2ccccc12)C(N)=O [Glp-Asn-Pro-Tyr-Trp-NH2] ([pGlu]NPYW-NH2)
Ki (TRH-DE [1]; [4]): 0.78 µM

NC(=O)[C@@H]1CCCN1C(=O)[C@H](CC(=O)O)NC(=O)[C@@H]1CCC(=O)N1 [Glp-Asp-ProNH2] ([pGlu]-Asp-Pro-NH2)
hydrolysis by TRH-DE (release of Glp) (TRH-DE [2]): No detectable Glp
Ki (TRH-DE [1]; [6]): > 1000 µM
inhibition at 1000 µM (TRH-DE [1]): 1%

NC(=O)C[C@@H](NC(=O)[C@@H]1CCC(=O)N1)C(=O)N1CCC[C@H]1C(N)=O [Glp-D-Asn-ProNH2] ([pGlu]-[dN]-Pro-NH2)
hydrolysis by TRH-DE (release of Glp) (TRH-DE [2]): No detectable Glp
Ki (TRH-DE [1]; [6]): > 1000 µM
inhibition at 1000 µM (TRH-DE [1]): 2%

NC(=O)CC[C@H](NC(=O)[C@@H]1CCC(=O)N1)C(=O)N1CCC[C@H]1C(N)=O [Glp-Gln-ProNH2] ([pGlu]-Gln-Pro-NH2)
hydrolysis by TRH-DE (release of Glp) (TRH-DE [2]): not hydrolyzed at all; also recorded: No detectable Glp
Ki (TRH-DE [1]; [5]): 69 ± 4.4 µM
inhibition at 1000 µM (TRH-DE [1]): 83%
reversibility and time dependence of inhibition (TRH-DE [1]; preincubation with TRH-DE up to 75 min at 37° C., Glp-Gln-ProNH2 400, Glp-Asn-ProNH2 160, Glp-Asn-ProAMC 1 μM): fully reversible and not time-dependent

NC(=O)[C@@H]1CCCN1C(=O)CNC(=O)[C@@H]1CCC(=O)N1 [Glp-Gly-ProNH2] ([pGlu]-Gly-Pro-NH2)
hydrolysis by TRH-DE (release of Glp) (TRH-DE [2]): No detectable Glp
Ki (TRH-DE [1]; [6]): > 1000 µM
inhibition at 1000 µM (TRH-DE [1]): 8%
